# From patent US20150148383A1, “Methods for Inhibiting or Reversing Epiretinal Membrane Formation” (Regenerative Research Foundation, priority 2013, published 2015)
# What was measured:
# human RPE cells = test: ZO-1 tight junction protein immunostaining; type: cell-based
# Experimental: Cells were fixed with 4% paraformaldehyde for 15 minutes, permeabilized with 0.2% Triton in PBS, blocked with 1% BSA for 30 minutes. Primary antibodies were used at 1:100 dilution in PBS. The corresponding Alexafluor 647 secondary antibodies were used for the respective primary antibody and imaged on a Zeiss Observer.D1 fluorescent microscope.
# [1] = system: fibroblastic cultures derived from RPE; test: Reversal of epithelial to mesenchymal transition in fibroblastic cultures derived from RPE; type: cell-based, human; settings: 10 mM nicotinamide, media changed 3 times a week; micrograph at 8 weeks
# Experimental: Epithelial to mesenchymal transition (EMT) was determined in fibroblastic cultures as follows: cells were plated 30,000 cells per 1 cm^2 tissue culture plate in DMEM/F12 with 5% FBS with the addition of 10 ng/ml TGFβ and 10 ng/ml TNFα to induce epithelial to mesenchymal transition (EMT). The extent of EMT was determined by the morphologic changes and immunohistochemical stains described above. Epithelial cells were plated at 30,000 cells/cm^2 and cultured until confluent (left image), after which 10 mM nicotinamide was added to the media, which was changed 3 times a week for 8 weeks (FIG. 10). The swirling fibroblastic morphology seen prior to addition of nicotinamide seen at the ‘3 week’ stage indicate the RPE cells have undergone EMT, losing their cobblestone morphology.
# adult human RPE cells = test: Gene expression analysis by real time PCR of RPE and mesenchymal markers; type: cell-based; settings: 10 mM nicotinamide, relative to control
# RPE cells [2] = test: Dose response for prevention of epithelial to mesenchymal transition, SNAIL staining read-out; type: cell-based, human; settings: all concentrations: 10 μM, 100 μM, 1 mM or 10 mM nicotinamide; 5 days
# Experimental: Cells were fixed with 4% paraformaldehyde for 15 minutes, permeabilized with 0.2% Triton in PBS, blocked with 1% BSA for 30 minutes. Primary antibodies were used at 1:100 dilution in PBS. The corresponding Alexafluor 647 secondary antibodies were used for the respective primary antibody and imaged on a Zeiss Observer.D1 fluorescent microscope. A dose response curve for the effect of nicotinamide on the prevention of epithelial to mesenchymal transition was determined using SNAIL expression as a read-out. RPE cells were cultured at 30,000 cells/well in a 24 well plate and cultured for 5 days in the presence of media containing 10 μM, 100 μM, 1 mM or 10 mM nicotinamide or control (no nicotinamide). The media was changed 3 times, and replaced with media containing the same concentration of nicotinamide, after which the cells were fixed and stained with fluorescently-labeled anti-SNAIL antibody. At all concentrations, SNAIL staining was decreased by application of nicotinamide.
# Adult human RPE [3] = test: Transepithelial resistance (TER) of RPE on transwells; type: cell-based; settings: measured weekly for one month; presence vs absence of nicotinamide
# Experimental: The transepithelial resistance (TER) is measured during and after treatment of hRPE cells cultured in 12-well 0.4 μm transwell inserts using the EVOM2 World Precision Instruments Volt Ohm Meter protocol. Resistance is measured in Ω-cm^2 and recorded prior to treatment to confirm that all wells are at approximately the same TER. The TER of a cell-free transwell insert of ˜110 Ω-cm^2 is subtracted to obtain the resistance of the cellular epithelium. TER is measured in each well after treatment to assess the change caused by nicotinamide. Adult human RPE were plated on semi-permeable polyester transwells and transepithelial resistance was measured weekly for one month.
# RPE cells [4] = test: RPE cell proliferation assay (Ki67 immunostaining, cell number); type: cell-based, human; settings: 10 mM nicotinamide; 5 days in DMEM/F12, 5% FBS
# Text: (§1) Primary adult RPE cells were obtained from cadaveric human eyes under IRB-approved protocols, within 36-hours of the time of death. The anterior half of the eye was removed followed by the vitreous, and retina, isolating the posterior eyecup with the RPE/Bruch's membrane/choroid complex intact (as described in Blenkinsop T A, et al. The culture and maintenance of functional retinal pigment epithelial monolayers from adult human eye. 2012; Salero E et al. Adult human RPE can be activated into a multipotent stem cell that produces mesenchymal derivatives. Cell Stem Cell. 2012; 10(1):88-95). […] Once the primary (passage zero) cells reached confluence (˜20 days), the FBS concentration was reduced to 5%. Then, following the protocol developed by Salero S et al., 2012 (supra), the RPE were activated to proliferate in RPE medium with 5% FBS. The expanded RPE cells were plated at 30,000 cells per well in a 24-well plate and cultured in DMEM/F12, 5% FBS. Proliferation rates were measured by manual and/or automated counting of cell number as a function of time.
# Cells were fixed with 4% paraformaldehyde for 15 minutes, permeabilized with 0.2% Triton in PBS, blocked with 1% BSA for 30 minutes. Primary antibodies were used at 1:100 dilution in PBS. […]
# RPE cells were plated at 30,000 cells per well in a 24 well plate and cultured for 5 days in DMEM/F12, 5% FBS and cell proliferation was measured.
# Adult human RPE [5] = test: Oxidative stress analysis: TBHP-induced TIMP-3 expression; settings: 500 μM TBHP 2 hours daily; presence vs absence of nicotinamide; quantitative PCR
# RPE cells [6] = test: RPE morphology in vitro by light microscopy; type: cell-based, human; settings: 10 mM nicotinamide vs no nicotinamide
# Text: as §1
# Cultures were imaged at 32× on a Zeiss Observer.D1 fluorescent microscope.
# Cultured RPE cells were analyzed by light microscopy.
smiles,measurement,setting,value
"NC(=O)c1cccnc1 [nicotinamide, Nicotinamide]",pattern of ZO-1 expression,human RPE cells; 10 mM nicotinamide vs control RPE cells,localized expression of tight junction protein ZO-1 peripherally around the cell borders
same,ZO1 staining (junctional marker),human RPE cells; 10 mM nicotinamide vs no nicotinamide,high levels of ZO1 staining
same,cell morphology after EMT (reversal of EMT),[1],revert to their physiologic cobblestone morphology
same,MITF mRNA expression (RPE marker),adult human RPE cells,increased
same,RPE65 mRNA expression (RPE marker),adult human RPE cells,increased
same,SLUG mRNA expression (mesenchymal marker),adult human RPE cells,decreased
same,SNAIL mRNA expression (mesenchymal marker),adult human RPE cells,decreased
same,TWIST mRNA expression (mesenchymal marker),adult human RPE cells,decreased
same,SNAIL staining,RPE cells [2],decreased
same,transepithelial resistance,Adult human RPE [3],increased over time
same,immunostaining for the cell proliferation marker Ki67,RPE cells [4],decreased immunostaining
same,total cell number,RPE cells [4],decrease in the total cell number
same,TBHP-induced TIMP3 expression relative to day 0,Adult human RPE [5],suppressed
same,RPE cell morphology,RPE cells [6],maintained their characteristic cobblestone morphology
